“Also recorded” adds a separate entry of the source.
Tests used:
MCF-7 = conditions: read-out: antiproliferative IC50; cited from earlier work
[1] = Toxicity study in mice: toxicokinetics, plasma AT7519 concentration; type: in vivo, Male mice (BABL/c); conditions: for plasma AT7519 exposures compared with AT7519 dosing: i.v., compound 11 0.062 mmol/kg, compound 12 0.124 mmol/kg, AT7519 0.031 mmol/kg
Protocol: (§1) Male mice (BABL/c) of 20 to 22 g were maintained under standard conditions and randomized into groups. […] Doses were calculated and expressed in mmol/kg-body weight, and drug tolerability, pharmacokinetics, and body weight effect were assessed.
Blood samples were collected at 2 min, 10 min, 1 h, and 4 h. Concentration of T7519 was analyzed in each sample using LC-MS/MS method. The results are summarized in Table 3, and the concentration-time curves are illustrated in FIG. 1.

[2] = Toxicokinetic study in rats: dose exploration; type: in vivo, Male SD (Sprague Dawley) rats; conditions: rat, i.v., one animal
Protocol: (§2) Male SD (Sprague Dawley) rats of body weight 220 to 240 g were maintained under standard conditions and randomized into three groups. On day 0 (initial day), all the animals were given one of the three compounds intravenously. Dose was calculated in mmol/kg.
(a) Dose exploration: One animal from each group was given the preset high dose of each compound.

[3] = test system: HT29 colon cancer xenograft; conditions: 9.1 mg/kg twice daily, early-stage and advanced-stage s.c. tumors; cited from earlier work
[4] = Toxicity study in mice: tolerability after i.v. administration; type: in vivo; conditions: for toxicity compared with AT7519: 2-fold (11) and 4-fold (12) molar-equivalents of the AT7519 threshold level
Protocol: as §1

[5] = Toxicokinetic study in rats: TK study, plasma AT7519 concentration; type: in vivo, Male SD (Sprague Dawley) rats; conditions: male, Sprague-Dawley, iv; rat plasma, I.V., 0.039 mmol/kg
Protocol: as §2
(b) TK study: The remaining animals were randomized into three groups, with 6 in each group. […] TK analysis was conducted as follows: Blood samples were collected at time points of 2 min, 10 min, 1 h, 2 h, and 6 h into sample tube (heparinized).

human MM xenograft = conditions: 15 mg/kg; cited from earlier work
[6] = 32.4 mg/m^2; cited from earlier work
[7] = test system: peripheral blood mononuclear cells (PBMNC); conditions: cited from earlier work
MM.1S = conditions: 48 hours, read-out: cytotoxicity IC50; cited from earlier work
MM.1R = conditions: 48 hours, read-out: cytotoxicity IC50; cited from earlier work
SW620 = conditions: read-out: antiproliferative IC50; cited from earlier work
non-CDK kinases = conditions: with the exception of GSK3β; cited from earlier work
[8] = test system: HCT116 colon cancer xenograft; conditions: 9.1 mg/kg twice daily, early-stage and advanced-stage s.c. tumors; cited from earlier work
[9] = Toxicity study in mice: body weight after a single i.v. dose; type: in vivo, Male mice (BABL/c)
Protocol: as §1
Clinical observations were made in the following schedule: continuous observation in the first four hours after dosing, and then twice daily, at one week time, and at day 14. The parameters for observation included animal's physical and mental behaviors, autonomous activity, hair, gland secretion, feces, and death. Body temperature was taken at pre-dosing, and on days 3, 5, 7, and 10 post-dosing.
The body weights of the animals are summarized in Table 4, and the trend lines for animal body weight changes in each group are given in FIG. 2. The body weight was average weight of all the animals in the group from a single measurement.

U266 = conditions: U266, 48 hours; read-out: cytotoxicity IC50; cited from earlier work
[10] = human, in vivo; cited from earlier work
[11] = male, BALB/c, mouse, plasma, iv, I.V., 0.031 mmol/kg
[12] = single i.v. dose 0.031 mmol/kg on day 0, group average
[13] = single i.v. dose 0.062 mmol/kg on day 0, group average
[14] = single i.v. dose 0.124 mmol/kg on day 0, group average

Compound: O=C(NC1CCNCC1)c1n[nH]cc1NC(=O)c1c(Cl)cccc1Cl [AT7519, 4-(2,6-Dichlorobenzamido)-N-(4-piperidinyl)-1H-pyrazole-3-carboxamide]
- IC50 (MCF-7): 0.04 µM
- concentration at 2 min [1, 11]: 10200 ng/mL
- concentration at 10 min [1, 11]: 1840 ng/mL
- concentration at 1 h [1, 11]: 489 ng/mL
- concentration at 4 h [1, 11]: 47 ng/mL
- Animal death ([2]; 0.049 mmol/kg): already at their lethal doses; also recorded: Died immediately post-dosing
- effect on tumors [3]: tumor regression
- threshold lethal dose ([4]; male, BALB/c, mouse, in vivo, iv): 0.031 mmol/kg
- Death rate (%) ([4]; mice, i.v., 0.031 mmol/kg): 20%
- Number of deaths ([4]; mice, i.v., 0.031 mmol/kg, 20 animals in group): 4
- Death rate (%) ([4]; mice, i.v., 0.039 mmol/kg): 100%
- concentration at 2 min [5]: 19100 ng/mL
- concentration at 10 min [5]: 4600 ng/mL
- concentration at 1 h [5]: 814 ng/mL
- concentration at 4 h [5]: 554 ng/mL
- concentration at 6 h [5]: 148 ng/mL
- median overall survival (human MM xenograft): prolong the median overall survival
- tumor growth (human MM xenograft): inhibit tumor growth
- DLT among the initial three patients [6]: one patient experienced DLT (grade 3 fatigue)
- DLT in two additional patients [6]: both of whom experienced DLTs (febrile neutropenia and grade 3 hypokalemia and mucositis)
- cytotoxicity in PBMNC [7]: does not induce cytotoxicity
- IC50 (MM.1S): 0.5 µM
- IC50 (MM.1R): > 2 µM
- IC50 (SW620): 0.94 µM
- activity against all non-CDK kinases (non-CDK kinases): inactive
- effect on tumors [8]: tumor regression
- Body weight (g) Day 0 [9, 12]: 19.44 g
- Body weight (g) Day 1 [9, 12]: 19.53 g
- Body weight (g) Day 2 [9, 12]: 19.45 g
- Body weight (g) Day 4 [9, 12]: 20.94 g
- Body weight (g) Day 7 [9, 12]: 20.83 g
- Body weight (g) Day 10 [9, 12]: 20.63 g
- IC50 (U266): 0.5 µM
- AEs of CTCAE grade 1 severity [10]: 46.7%
- AEs of CTCAE grade 2 severity [10]: 37.8%
- patients with at least one treatment-related AE [10]: 82.1%
- treatment-emergent AE anorexia [10]: 39.3%
- treatment-emergent AE constipation [10]: 32.1%
- treatment-emergent AE fatigue [10]: 42.9%
- treatment-emergent AE hypotension [10]: 25.0%
- treatment-emergent AE nausea [10]: 50.0%
- treatment-emergent AE peripheral edema [10]: 25.0%
- treatment-emergent AE pyrexia [10]: 25.0%
- treatment-emergent AE vomiting [10]: 39.3%

Compound: O=C(NC1CCNCC1)c1nn(COP(=O)([O-])[O-])cc1NC(=O)c1c(Cl)cccc1Cl.[Na+].[Na+] [Compound 11]
- plasma AT7519 exposures compared with AT7519 dosing [1]: much higher
- Animal death ([2]; 0.055 mmol/kg, listed as compound 11, phosphate disodium Salt): already at their lethal doses
- Animal death ([2]; 0.055 mmol/kg, phosphate disodium Salt): Died at 2 min post-dosing
- Death rate (%) ([4]; mice, i.v., 0.062 mmol/kg): 0%
- toxicity compared with AT7519 ([4]; mice, i.v.): much less toxic than AT7519
- Body weight (g) Day 0 [9, 13]: 19.16 g
- Body weight (g) Day 1 [9, 13]: 18.58 g
- Body weight (g) Day 2 [9, 13]: 18.83 g
- Body weight (g) Day 4 [9, 13]: 19.95 g
- Body weight (g) Day 7 [9, 13]: 20.16 g
- Body weight (g) Day 10 [9, 13]: 20.52 g

Compound: COC(=O)[C@H](C)NP(=O)(Oc1ccccc1)N1CCC(NC(=O)c2n[nH]cc2NC(=O)c2c(Cl)cccc2Cl)CC1 (stereo partly drawn) [Compound 12, N-((4-(4-(2,6-dichlorobenzamido)-1H-pyrazole-3-carboxamido)-1-piperidinyl)(phenoxy)phosphinyl)-L-alanine methyl Ester]
- plasma AT7519 exposures compared with AT7519 dosing [1]: much higher
- Animal death ([2]; 0.125 mmol/kg): Behaved normally
- Animal death ([2]; 0.125 mmol/kg, listed as compound 12): did not induce the animal death
- Death rate (%) ([4]; mice, i.v., 0.124 mmol/kg): 0%
- toxicity compared with AT7519 ([4]; mice, i.v.): much less toxic than AT7519
- Body weight (g) Day 0 [9, 14]: 19.75 g
- Body weight (g) Day 1 [9, 14]: 18.70 g
- Body weight (g) Day 2 [9, 14]: 19.17 g
- Body weight (g) Day 4 [9, 14]: 19.95 g
- Body weight (g) Day 7 [9, 14]: 20.79 g
- Body weight (g) Day 10 [9, 14]: 21.30 g
